Source: ChEMBL document CHEMBL1201862, “PubChem BioAssay data set” (2004)
The source made the active and inactive calls.

Key:
[1] = target: T1, Mannose-6-phosphate isomerase (Homo sapiens, UniProt P34949); experiment: MPI inhibition at elevated mannose 6-phosphate – biochemical, fluorescence intensity, high mannose 6-phosphate, primary screen (AID 1220)
T1 sequence (P34949 whole entry): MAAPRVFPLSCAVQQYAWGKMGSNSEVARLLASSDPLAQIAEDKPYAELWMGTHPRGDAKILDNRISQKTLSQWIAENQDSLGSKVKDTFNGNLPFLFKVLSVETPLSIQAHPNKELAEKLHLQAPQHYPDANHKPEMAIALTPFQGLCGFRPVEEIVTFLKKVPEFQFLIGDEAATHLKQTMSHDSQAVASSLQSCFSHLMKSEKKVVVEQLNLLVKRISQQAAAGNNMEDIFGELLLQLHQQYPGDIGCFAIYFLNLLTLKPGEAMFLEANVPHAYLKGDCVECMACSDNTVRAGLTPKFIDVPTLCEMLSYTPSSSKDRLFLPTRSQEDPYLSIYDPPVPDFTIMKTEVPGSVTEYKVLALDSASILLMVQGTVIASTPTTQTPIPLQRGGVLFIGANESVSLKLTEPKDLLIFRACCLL

[2] = target: Mitogen-activated protein kinase 10 (Homo sapiens, UniProt P53779); experiment: Dose response biochemical screening assay for inhibitors of c-Jun N-Terminal Kinase 3 (JNK3). [Related pubchem assays: 746 ]
[3] = target: T2, Oxysterols receptor LXR-beta (Homo sapiens, UniProt P55055); type: functional, cell-based;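 further: Cell-based luminescence dose-response assay of agonist activity at LXR, run as a confirmatory counterscreen to a daf-12 agonist screen; HEK293 cells with Gal4-LXR fusion and GAL4-driven luciferase reporter; agonist potency from rising luciferase signal of a Gal4-LXR reporter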
T2 sequence (P55055 whole entry): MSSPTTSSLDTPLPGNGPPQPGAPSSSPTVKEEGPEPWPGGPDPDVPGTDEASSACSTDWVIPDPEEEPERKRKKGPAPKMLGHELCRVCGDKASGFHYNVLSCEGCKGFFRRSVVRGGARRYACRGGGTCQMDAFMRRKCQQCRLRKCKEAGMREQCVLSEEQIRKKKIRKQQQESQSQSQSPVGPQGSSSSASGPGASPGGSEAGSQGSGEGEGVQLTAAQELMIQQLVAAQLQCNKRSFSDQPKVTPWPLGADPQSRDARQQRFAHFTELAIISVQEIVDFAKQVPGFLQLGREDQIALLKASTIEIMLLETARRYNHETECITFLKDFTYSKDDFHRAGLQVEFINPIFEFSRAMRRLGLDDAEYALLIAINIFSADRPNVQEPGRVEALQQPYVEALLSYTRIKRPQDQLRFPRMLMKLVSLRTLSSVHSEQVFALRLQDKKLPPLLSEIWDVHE

[4] = cells
[5] = tested on: H9c2; experiment: cells; type: functional, cell-based; details: Rattus norvegicus, H9c2, Myocardium;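 further: confirmatory concentration-response retest of ultra-high-throughput screening hits for modulation of myocardial damage; cell death induced by hydrogen peroxide oxidative stress; compound pretreatment for 60 min then peroxide exposure for 2 h; potency is for protecting the cells against peroxide damage rather than for killing them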
[6] = reduction of Shn3 3'UTR-driven luciferase in osteoblasts – cell-based, Clone20 osteoblasts, firefly luciferase, cherry-picked, dose response (AID 624132); type: functional;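 further: firefly luciferase luminescence from reporter carrying the Shn3 3'UTR in osteoblasts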
[7] = loss of viability in HepG2 cells – cell-based, CellTiter-Glo, cherry-picked, cytotoxicity control for Shn3 inhibitor project, dose response (AID 624134); type: functional
[8] = target: Disintegrin and metalloproteinase domain-containing protein 17 (Homo sapiens, UniProt P78536); experiment: exosite inhibitors of ADAM17, dose response, biochemical (AID 743260)
[9] = inhibition of ADAM10 peptide cleavage – biochemical, FRET peptide substrate, recombinant human ADAM10, selectivity assay for ADAM17 exosite inhibitor project, dose response (AID 743259);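 further: ADAM10 enzyme cleaving a FRET peptide substrate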
[10] = viability inhibitors of stage V gametocytes – luminescence, dose response (AID 1117278); type: functional, cell-based;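 further: gametocytes exposed to compound for 24 hours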
[11] = viability loss in human Jurkat cells – cell-based, luminescence, cytotoxicity control for P. falciparum gametocyte viability project, dose response (AID 1117277); type: functional;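 further: potency reflects loss of cellular ATP meaning fewer viable cells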
[12] = tested on: BJ; experiment: BJ-TERT fibroblast viability loss – cell-based, RAS-independent, luminescence, dose response (AID 1933); type: functional; details: Homo sapiens
[13] = tested on: BJ; experiment: cells; type: functional, cell-based; details: Homo sapiens
[14] = target: Luciferin 4-monooxygenase (Photinus pyralis, UniProt P08659); experiment: inhibition of purified Photinus pyralis luciferase – biochemical, luminescence, dose response (AID 1891)
[15] = Luminescence Cell-Based Dose Confirmation HTS to Identify Inhibitors of Platelet Dense Granule Release. [Related pubchem assays: 1663 (Primary HTS), 1678 (Summary of Project)]; type: functional
[16] = tested on: BJ; experiment: BJ-TERT-LT-ST fibroblast viability loss – cell-based, RAS-independent, luminescence, dose response (AID 1935); type: functional; details: Homo sapiens;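 further: BJ fibroblasts immortalized with TERT plus LT and ST oncogenes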
[17] = DRD fibroblast viability loss – cell-based, non-viral oncogenic, luminescence, dose response (AID 1934); type: functional; details: Homo sapiens
[18] = A549 cell cytotoxicity, dose response, cytotoxicity control, plate reader, cherry-pick, antagonist series (AID 743412); type: functional, cell-based
[19] = toxicity toward HepG2 liver cells – cell-based, plate reader, cherry-pick, antagonist series, cytotoxicity control, dose response (AID 743416); type: functional
[20] = blockers of bursicon-stimulated LGR2 cAMP reporter – cell-based, HEK293, CRE-luciferase reporter, cherry pick, set 2, dose response (AID 743343); type: functional;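 further: transfected cells were stimulated with diluted bursicon conditioned medium after compound addition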
[21] = blockade of melanocortin 4 receptor signaling – cell-based, plate reader, cherry pick, counter-screen for LGR2 antagonist project, dose response (AID 743444); type: functional;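 further: transfected HEK 293 cells stimulated with alpha-MSH peptide; potency of inhibitors of the alpha-MSH evoked signal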
[22] = viability loss in HEK293 cells – cell-based, plate reader, cherry-picked samples, cytotoxicity control, dose response (AID 743446); type: functional
[23] = target: T3, Estrogen receptor (Homo sapiens, UniProt P03372);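 further: potency for inhibiting coactivator peptide recruitment to the receptor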
T3 sequence (P03372 whole entry): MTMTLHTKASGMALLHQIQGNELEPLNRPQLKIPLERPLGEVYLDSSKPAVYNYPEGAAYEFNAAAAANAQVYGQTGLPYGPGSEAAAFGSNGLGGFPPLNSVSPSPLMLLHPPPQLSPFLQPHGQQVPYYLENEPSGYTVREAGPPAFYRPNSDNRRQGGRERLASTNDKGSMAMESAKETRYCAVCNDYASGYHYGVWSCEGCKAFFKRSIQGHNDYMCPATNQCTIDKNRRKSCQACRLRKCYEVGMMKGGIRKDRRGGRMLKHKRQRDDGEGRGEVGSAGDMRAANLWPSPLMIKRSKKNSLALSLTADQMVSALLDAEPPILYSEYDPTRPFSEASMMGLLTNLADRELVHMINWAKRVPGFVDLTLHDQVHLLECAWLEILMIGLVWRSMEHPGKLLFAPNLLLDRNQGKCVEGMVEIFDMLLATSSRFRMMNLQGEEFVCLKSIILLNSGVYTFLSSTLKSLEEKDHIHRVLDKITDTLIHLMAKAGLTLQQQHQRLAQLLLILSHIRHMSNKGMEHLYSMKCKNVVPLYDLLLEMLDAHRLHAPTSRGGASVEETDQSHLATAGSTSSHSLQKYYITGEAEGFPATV

[24] = viability loss in THP-1 monocytes – THP-1 cells, cytotoxicity control for Vif-APOBEC3G degradation inhibitor project, dose response (AID 1117359); type: functional; details: THP-1

Sequence of Mitogen-activated protein kinase 10 (P53779 whole entry, the tested form may be a part): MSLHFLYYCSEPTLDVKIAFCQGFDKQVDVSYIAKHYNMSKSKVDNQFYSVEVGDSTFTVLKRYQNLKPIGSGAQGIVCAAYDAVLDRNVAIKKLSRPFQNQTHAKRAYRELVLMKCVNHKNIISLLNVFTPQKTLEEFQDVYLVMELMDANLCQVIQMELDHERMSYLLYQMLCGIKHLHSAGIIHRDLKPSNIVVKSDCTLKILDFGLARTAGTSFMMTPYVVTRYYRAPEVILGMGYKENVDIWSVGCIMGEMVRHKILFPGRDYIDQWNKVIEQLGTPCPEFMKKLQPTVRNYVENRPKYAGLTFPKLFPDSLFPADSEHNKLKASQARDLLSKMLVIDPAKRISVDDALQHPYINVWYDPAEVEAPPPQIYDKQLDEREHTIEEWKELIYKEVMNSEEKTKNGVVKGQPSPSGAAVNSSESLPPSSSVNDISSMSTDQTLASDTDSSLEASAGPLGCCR
Sequence of Disintegrin and metalloproteinase domain-containing protein 17 (P78536 whole entry, the tested form may be a part): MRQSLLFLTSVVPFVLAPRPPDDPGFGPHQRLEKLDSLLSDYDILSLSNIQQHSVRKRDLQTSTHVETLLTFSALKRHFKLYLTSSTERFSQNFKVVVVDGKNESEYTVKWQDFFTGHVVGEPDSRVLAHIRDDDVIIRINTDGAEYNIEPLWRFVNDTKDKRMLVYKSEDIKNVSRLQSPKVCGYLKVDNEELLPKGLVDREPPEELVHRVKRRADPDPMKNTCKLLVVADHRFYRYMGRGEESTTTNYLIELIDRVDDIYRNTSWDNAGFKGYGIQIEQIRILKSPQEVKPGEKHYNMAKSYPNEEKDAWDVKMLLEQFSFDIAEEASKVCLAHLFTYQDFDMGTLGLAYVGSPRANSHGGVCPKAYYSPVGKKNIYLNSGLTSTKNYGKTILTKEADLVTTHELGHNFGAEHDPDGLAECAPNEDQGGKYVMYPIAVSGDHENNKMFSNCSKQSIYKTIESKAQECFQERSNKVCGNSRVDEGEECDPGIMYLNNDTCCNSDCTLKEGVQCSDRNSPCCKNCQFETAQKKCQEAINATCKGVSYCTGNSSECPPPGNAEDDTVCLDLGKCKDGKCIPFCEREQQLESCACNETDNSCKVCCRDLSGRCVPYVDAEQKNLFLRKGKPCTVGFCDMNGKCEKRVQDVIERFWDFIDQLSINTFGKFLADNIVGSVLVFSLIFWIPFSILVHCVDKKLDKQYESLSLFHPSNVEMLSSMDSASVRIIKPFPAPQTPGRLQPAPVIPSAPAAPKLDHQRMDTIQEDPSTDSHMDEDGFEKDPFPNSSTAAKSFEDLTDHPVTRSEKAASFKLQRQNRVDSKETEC
Sequence of Luciferin 4-monooxygenase (P08659 whole entry): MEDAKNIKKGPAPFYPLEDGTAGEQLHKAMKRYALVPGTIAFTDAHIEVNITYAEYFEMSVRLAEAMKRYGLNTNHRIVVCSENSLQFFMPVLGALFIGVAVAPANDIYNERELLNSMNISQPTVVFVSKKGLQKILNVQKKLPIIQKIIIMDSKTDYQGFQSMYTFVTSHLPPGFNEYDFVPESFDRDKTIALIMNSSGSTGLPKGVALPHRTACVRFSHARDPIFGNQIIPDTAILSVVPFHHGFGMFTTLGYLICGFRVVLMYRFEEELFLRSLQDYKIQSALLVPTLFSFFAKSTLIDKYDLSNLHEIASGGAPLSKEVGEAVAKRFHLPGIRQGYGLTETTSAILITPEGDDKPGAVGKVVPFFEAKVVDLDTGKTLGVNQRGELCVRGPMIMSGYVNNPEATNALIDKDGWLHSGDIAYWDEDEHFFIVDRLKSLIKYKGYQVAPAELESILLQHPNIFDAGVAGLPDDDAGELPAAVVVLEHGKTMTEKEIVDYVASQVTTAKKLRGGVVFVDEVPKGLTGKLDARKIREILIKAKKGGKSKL

With CN(C)c1cccc2c(C#N)ccc(N(C)C)c12 as the compound, how does the IC50 [1] read?
Its IC50 is > 50 µM (not active).

For CCN(CC)S(=O)(=O)c1ccc2nc(COC(=O)c3n[nH]c4ccccc34)[nH]c2c1, which IC50 [2] is on record?
Its IC50 is 0.401 µM (active).

Which results are given for O=C(NC(=S)Nc1ccc(Br)cn1)c1cccs1?
EC50 [3]: > 67.5 µM (inactive); EC50 [4]: > 67.5 µM (inactive)

For COc1ccc(OC)c(NC(=O)COC(=O)c2c3c(nc4ccccc24)CCCC3)c1, which IC50 [5] is on record?
The IC50 was > 79 µM (inactive).

What about the AC50 [6] of the same compound?
Its AC50 is 8.67 µM (active).

And the AC50 [7]?
Its AC50 is > 70 µM (inactive).

And the IC50 [8]?
Its IC50 is > 69.5 µM (inactive).

And the IC50 [9]?
The IC50 was > 69.5 µM (inactive).

What does the source list for O=C(NCc1ccc(F)cc1)C(Cc1ccccc1)NS(=O)(=O)c1cccs1 (stereo not given)?
IC50 [10]: > 109 µM (inactive); IC50 [11]: > 83.3 µM (inactive)

For COc1ccc(-c2ccc(SC)nn2)cc1, which EC50 [12] is on record?
Its EC50 is 6.75 µM (active).

What about the EC50 [13] of the same compound?
Its EC50 is 6.55 µM (active).

What about the EC50 [14] of the same compound?
Its EC50 is 1.1 µM (active).

What about the EC50 [15] of the same compound?
The EC50 was 1.98 µM (active).

And the EC50 [16]?
The EC50 was 15.7 µM (active).

And the EC50 [17]?
Its EC50 is 6.25 µM (active).

And the AC50 [18]?
Its AC50 is 14.4 µM (active).

What about the AC50 [19] of the same compound?
Its AC50 is 8.69 µM (active).

What about the AC50 [20] of the same compound?
Its AC50 is 5.07 µM (active).

What about the AC50 [21] of the same compound?
The AC50 was 6.62 µM (active).

What about the AC50 [22] of the same compound?
Its AC50 is 8.72 µM (active).

Which IC50 [23] does the source give for CC(=O)Nc1nc(C=C(Cl)Cl)cs1 here?
The IC50 was > 50 µM (not active).

For CC(C)(C)C(=O)OCc1nc(-c2ccc(O)c(O)c2)cs1, which CC50 [24] is on record?
Its CC50 is 27.8 µM (active).

With Cc1ccc(-n2c(SCC(=O)NCc3ccco3)nc3c4ccccc4nc-3c2O)cc1 as the compound, how does the CC50 [24] read?
The CC50 was > 40 µM (active).
